Experimental findings from patent publication US11014902B2, “MYC G-quadruplex stabilizing small molecules and their use” (The United States of America, as represented by the …, priority 2015, dated 2021) are described below.

The IC50 is the concentration that inhibits the measured activity by half. A low value points to greater potency.

Data set [1] has as its system c-Myc transcription. The experiment in a line: c-Myc transcription in myeloma cells (qPCR). The data set is classed as cell-based, human. The conditions noted are these: 10 μM, after 24 hours. The protocol: (§1) Since two thirds of multiple myeloma cases involve deregulated c-MYC expression (Kuehl and Bergsagel, Blood 2012, 120, 2351; Shou, et al., Proc Natl Acad Sci USA 2000, 97, 228), we elected to evaluate the cell viability effects of Compound 1 in a multiple myeloma model. […] This suppression was maintained over 72 hours, which is notable given the characteristic rapid replenishment of the protein—a phenomenon that complicates targeting c-Myc at the protein level (FIG. 4C). This effect was maintained across a genetically diverse set of 4 multiple myeloma lines. We observed decreases in c-MYC translation in all lines tested, and this effect also correlated with decreases in viability (FIG. 4D).
For orientation: Quantitative PCR measures a nucleic acid by following its amplification.

Data set [2] relates to c-Myc protein. The experiment in a line: c-Myc protein translation in myeloma cells (Western blot). The format is cell-based, human. The conditions noted are these: 10 μM, maintained over 72 hours. The method, then: as §1
Cell pellets/tissue were homogenized and lysed in RIPA buffer on ice for 1 h. Protein was quantitated by BCA, and equal protein was loaded onto 4-12% Bis-Tris Gels (Novex), electrophoresed at 150 V for 75 min to obtain sufficient separation, and transferred via the iBlot system (Life Technologies). Successful transfer and uniform loading was confirmed by Ponceau S staining (Thermo Scientific). Blots were blocked in 10% dry milk in TBST, incubated with primary monoclonal antibodies in 5% BSA at concentrations designated by the manufacturer, and gently rotated at 4° C. overnight. […]

The subject of data set [3] is peripheral blood mononucleocytes. The experiment in a line: Viability of peripheral blood mononucleocytes. The data set is classed as cell-based. Conditions: healthy volunteer cells; doses 25% higher than for cell treatments. The method, then: as §1
Data set [4] relates to L363 cells. Put plainly: Cell cycle analysis (propidium iodide staining). The data set is classed as cell-based, human. The conditions noted are these: 10 μM, after 72 hours. The method, then: (§2) To further explore the mechanism of action for the anticancer activity of Compound 1, cell cycle analysis was performed and monitored for potential induction of apoptotic death. […] Additionally, minimal increases in apoptosis were observed, by Annexin V/7-AAD staining and FACS analysis; only 13% of the cells were undergoing apoptosis (FIG. 5B).

For data set [5], the system named is myeloma cells. The experiment in a line: Apoptosis (Annexin V/7-AAD staining, FACS). Conditions: 10 μM, 72 h. The data set is classed as cell-based, human. The method, then: as §2
The subject of data set [6] is myeloma cells. The experiment in a line: Senescence in myeloma cells. The conditions noted are these: 10 μM, after 72 hours. The data set is classed as cell-based, human.
Data set [7] relates to KRAS, VEGF G4s. Put plainly: Biophysical measurements of compound affinity, KRAS and VEGF G4s. The format is binding.
Data set [8] has as its system AMO1. Put plainly: Multiple myeloma cell viability. The data set is classed as cell-based. The conditions noted are these: Homo sapiens. The method, then:
(§3) Human multiple myeloma and Burkitt's Lymphoma cell lines L363, CA46, MM-1R, KMS-11, and MM-1S were cultured and authenticated as previously described (Simmons, et al., Molecular oncology 2014, 8, 261). All plasma derived cell lines were cultured in RPMI-1640 (2 mM L-glutamine, 10% fetal bovine serum (FBS), 100 U/ml penicillin, 100 μg/ml streptomycin: Gibco) and incubated at 37° C. with 5% CO2. Viability experiments were performed in quadruplicate on 96-well plates (Costar) at designated time and dose points. MTS reagent was then directly added, incubated at 37° C. for 90 min, and absorbance of MTS formazan was read at 500 nm on an Omega 640 spectrophotometer. Percentage cell viability was normalized to the absorbance of untreated (DMSO) wells. In the case of cells harvested for their protein or RNA, pellets were flash frozen and stored at −80° C. overnight prior to use.
(§4) Additional multiple myeloma cell lines were assayed for cell viability in the presence of Compound 23, and the following IC50 values were determined.

The subject of data set [9] is ARD. The experiment in a line: Multiple myeloma cell viability. The format is cell-based. The method, then: as §3, §4
In data set [10] the test system is JIM1. The experiment in a line: Multiple myeloma cell viability. The format is cell-based. The protocol: as §3, §4
Data set [11] has as its system KMM1. The experiment in a line: Multiple myeloma cell viability. The conditions noted are these: KMM-1. The data set is classed as cell-based. The method, then: as §3, §4
The subject of data set [12] is KMS12PE. The experiment in a line: Multiple myeloma cell viability. The conditions noted are these: Homo sapiens, KMS-12-PE. The format is cell-based. The protocol: as §3, §4
Data set [13] has as its system KMS27. Put plainly: Multiple myeloma cell viability. The data set is classed as cell-based. The conditions noted are these: KMS-27. The protocol: as §3, §4
The test system of data set [14] is c-Myc protein in H157 cells. The experiment in a line: c-Myc protein expression by Western blot, H157. The format is cell-based, human. The conditions noted are these: 10 μM. The method, then: The effect of Compound 23 on the expression of c-Myc protein in the human lung cancer cell lines H1299 and H157 was also assayed. H1299 and H157 cells were treated with 10 μM Compound 23 and c-Myc protein expression levels quantified by Western blot. In Compound 23-treated H1299 cells, c-Myc protein expression levels were approximately 55% compared to untreated control cells. In Compound 23-treated H157 cells, c-Myc protein expression levels were approximately 74% compared to untreated control cells.

For data set [15], the system named is c-MYC expression in L363 xenograft tumors. The experiment in a line: Pharmacodynamic evaluation in L363 subcutaneous xenografts (western blot). The format is in vivo. Conditions: single dose 19 mg/kg or 38 mg/kg IP; tumors harvested 2 and 8 hours; nude mice with L363 xenografts. The method, then:
The capacity of Compound 23 to inhibit c-MYC expression in tumor was evaluated in nude mice bearing subcutaneous xenografts of the human multiple myeloma cell line L363. In this assay, tumors from two tumor-bearing mice were harvested 2 and 8 hours after a single dose of Compound 23 at 19 mg/kg or 38 mg/kg (administered IP).

With `Cc1ccc(NC(=O)c2c(C)oc3ccc(O)c(CN4CCCCCC4)c23)cc1` [Compound 1], the “decrease in c-Myc transcription” value in [1] is reported as “seven-fold decrease”. Moreover, in [2], the c-Myc protein translation result is given as “significantly inhibited”. Further, the viability entry in data set [3] is on record as “did not alter viability”. Further, the “treated cells arrested in the G1 phase” value in data set [4] is reported as around 85%. The compound also displayed a cells undergoing apoptosis in [5] of 13%. Moreover, the senescent state result in data set [6] is given as “triggered a senescent state”. Moreover, the G4 binding result in data set [7] is listed as “complete lack of G4 binding”.
With `Cc1oc2ccc(O)c(CN3CCCCCC3)c2c1C(=O)Nc1ccc(C(F)(F)F)cc1` [Compound 23], the IC50 in [8] was 5.92 µM; in data set [9] it was 5.75 µM; in data set [10], 6.35 µM; in [11], 4.13 µM; in data set [12] it was 5.33 µM; in data set [13], 5.06 µM. For the same compound, the “c-Myc protein expression levels compared to untreated control cells” value in [14] is “approximately 74%”. Also, the “c-MYC expression levels in tumors compared to vehicle control tumors” value in [15] is reported as “decreased c-MYC expression levels”.
